Assay results reported in ChEMBL document CHEMBL4145610, “Total Syntheses of Lobaric Acid and Its Derivatives from the Antarctic Lichen Stereocaulon alpinum” (J Nat Prod, 2018).
pIC50: −log10 of the molar value.

Target: T1, Tyrosine-protein phosphatase non-receptor type 1 (Homo sapiens, UniProt P18031)
T1 sequence (P18031 whole entry): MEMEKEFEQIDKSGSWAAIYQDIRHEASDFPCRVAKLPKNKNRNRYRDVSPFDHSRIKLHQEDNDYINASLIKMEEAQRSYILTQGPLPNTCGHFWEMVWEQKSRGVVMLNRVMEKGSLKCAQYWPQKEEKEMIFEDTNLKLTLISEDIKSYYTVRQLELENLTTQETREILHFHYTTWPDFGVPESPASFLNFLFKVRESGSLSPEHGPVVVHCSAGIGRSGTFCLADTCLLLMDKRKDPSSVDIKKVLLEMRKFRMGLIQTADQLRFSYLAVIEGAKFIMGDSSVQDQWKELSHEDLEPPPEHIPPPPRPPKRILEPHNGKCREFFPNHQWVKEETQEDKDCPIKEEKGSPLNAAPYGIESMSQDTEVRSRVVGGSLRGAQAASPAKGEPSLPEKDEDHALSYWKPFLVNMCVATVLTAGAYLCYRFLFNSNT
Test: Inhibition of PTP1B (1 to 298 residues) (unknown origin) using p-nitrophenylphosphate as substrate after 30 mins

Structure (SMILES) | pIC50
CCCCCc1c(Oc2cc(OC)cc3c2C(=O)OC3(O)CCCC)c(O)cc(O)c1C(=O)O (stereo not given) | 6.05
CCCCCc1c(Oc2cc(OC)cc3c2C(=O)OC3(CCCC)OC)c(O)cc(O)c1C(=O)O (stereo not given) | 5.82
CCCCCc1cc(O)cc(O)c1Oc1cc(OC)cc2c1C(=O)OC2(O)CCCC (stereo not given) [SAKISACAULON A] | 5.77

Compounds with a higher pIC50, results first:

pIC50 | Structure (SMILES)
6.30 | CCC/C=C1\OC(=O)c2c(Oc3c(O)cc(O)c(C(=O)O)c3CCCCC)cc(OC)cc21
6.10 | CCCCCc1c2c(cc(O)c1C(=O)O)OC(=O)c1c(cc(OC)cc1C(=O)CCCC)O2 [LOBARIC ACID]
